Measured values reported in paper PMC5049785, “Characterization of Novel Antimalarial Compound ACT-451840: Preclinical Assessment of Activity and Dose–Efficacy Modeling” (PLoS Medicine, 2016).
Where two headings read alike, the source gives them in different places. One block for each molecule: values may come before it.

Assays:
[1] = test system: P. vivax clinical isolates (Papua, Indonesia); assay: Ex vivo drug susceptibility, P. vivax clinical isolates; type: cell-based, Plasmodium vivax; details: Plasmodium vivax, read-out: median IC50
Description: (§1) […]. Thick blood films made from each well were stained with 5% Giemsa solution for 30 min and examined microscopically. The number of schizonts per 200 asexual-stage parasites was determined for each drug concentration and normalized to the control well.

V1/S^C580Y parasites = assay: microbe, parasite or virus in culture; type: cell-based, P. falciparum
Description: (§2) Parasites were cultured at Columbia University Medical Center (New York, USA) as previously described (1). Cam3.II and V1/S parasites, which had been genetically engineered to express K13 wild-type or K13 C580Y were seeded in a 96-well plate at 0.2% parasitemia and 1% hematocrit (2). […] Parasites were then stained with SYBR Green I (Invitrogen) and MitoTracker Deep Red (ThermoFisher Scientific) for 20 minutes at 37 °C (3). Stained parasites were detected using a BD Accuri 6 Flow Cytometer, and analyzed using FlowJo Software. IC50 values were determined by nonlinear regression using GraphPad Prism 6.0. For statistical analyses, Student’s t-tests were performed, and significance was set at P < 0.05.
(§3) Values indicate mean ± SEM, shown in nM. Significance determined by Student's t-test against parental lines.

[2] = test system: V1/S parasites (K13 wild-type); assay: microbe, parasite or virus in culture; type: cell-based, P. falciparum
Description: as §2, §3

Cam3.II^C580Y parasites = assay: microbe, parasite or virus in culture; type: cell-based, P. falciparum; details: for IC50: Plasmodium falciparum, 72 h
Description: as §2, §3

[3] = test system: Cam3.II^rev parasites (K13 wild-type); assay: microbe, parasite or virus in culture; type: cell-based, P. falciparum; details: for IC50: Plasmodium falciparum, 72 h
Description: as §2, §3

[4] = test system: P. falciparum clinical isolates (Papua, Indonesia); assay: Ex vivo drug susceptibility, P. falciparum clinical isolates; type: cell-based, Plasmodium falciparum; details: Plasmodium falciparum, read-out: median IC50
Description: as §1

[5] = test system: P. falciparum D6 (Sierra Leone); assay: [3H]-hypoxanthine incorporation assay, D6; type: cell-based, Plasmodium falciparum; details: Plasmodium falciparum
[6] = test system: P. falciparum 7G8 (Brazil); assay: [3H]-hypoxanthine incorporation assay, 7G8; type: cell-based, Plasmodium falciparum; details: Plasmodium falciparum
[7] = test system: P. falciparum V1/S (Vietnam); assay: [3H]-hypoxanthine incorporation assay, V1/S; type: cell-based, Plasmodium falciparum; details: Plasmodium falciparum, read-out: 50% inhibitory concentration (IC50)
[8] = test system: P. falciparum W2 (Vietnam); assay: [3H]-hypoxanthine incorporation assay, W2; type: cell-based, Plasmodium falciparum; details: Plasmodium falciparum
[9] = test system: P. falciparum NF54 strain; assay: [3H]-hypoxanthine incorporation assay, NF54; type: cell-based, Plasmodium falciparum; details: Plasmodium falciparum
Description: In vitro time-, stage-, and concentration-dependent effects were assessed using pyrimethamine as a stage-specific and slow-acting control, as described elsewhere.

[10] = test system: P. falciparum K1 (Thailand); assay: [3H]-hypoxanthine incorporation assay, K1; type: cell-based, Plasmodium falciparum; details: Plasmodium falciparum
[11] = test system: P. falciparum TM90C2A (Thailand); assay: [3H]-hypoxanthine incorporation assay, TM90C2A; type: cell-based, Plasmodium falciparum; details: Plasmodium falciparum
[12] = test system: P. falciparum strain 3D7 (MR4); design: method as in PMID 16735432; details: 10 x IC50; cited from earlier work
[13] = test system: GFP-transfected P. berghei ANKA strain; assay: In vivo efficacy, P. berghei mouse model; design: species or system Plasmodium berghei in female NMRI mice; details: 100 mg/kg quadruple-dose regimen
Description: In vivo efficacy against P. berghei was conducted at the Swiss TPH as previously described, with the modification that female NMRI mice from Harlan (Horst, The Netherlands) (n = 3) were infected with a GFP-transfected P. berghei ANKA strain (kindly donated by A. P. Waters and C. J. Janse, Leiden University Medical Center, The Netherlands) and parasitemia was determined using standard flow cytometry techniques. ACT-451840 was dissolved or suspended in corn oil before dosing and administered 24 h after infection (single-dose regimen) or 24, 48, and 72 h after infection (triple-dose regimen). With the single-dose regimen, blood was collected on Day 3 (72 h after infection). Samples for the triple-dose regimens were collected on Day 4 (96 h after infection). Antimalarial activity was calculated as the difference between the mean percent parasitemia for the control and treated groups expressed as a percent relative to the control group, consisting of five mice. Control mice were euthanized on Day 4 in order to prevent death typically occurring on Day 6. For the consistency in PK/PD modeling, Day 5 instead of Day 6 was considered the day of death, because treated animals were always euthanized one day before their natural death for animal welfare reasons. Animals were considered cured if there were no detectable parasites on Day 30 post-infection. To confirm the reliability of this assumption, blood from the surviving mice in curative experiments was inoculated into uninfected mice, and no parasitemia developed in these mice even after 30 d. The antimalarial efficacy is defined either as antimalarial activity or as survival: the two readouts of the P. berghei murine model.

[14] = test system: P. falciparum PfNF54^0230/N3; assay: In vivo efficacy, P. falciparum mouse model (GSK); details: oral quadruple-dose regimen, once a day
Description: In vivo efficacy against P. falciparum was conducted at GSK according to the standard assay previously described. Female NODscidIL2Rγnull mice were engrafted with human erythrocytes and infected with the isolate P. falciparum PfNF54^0230/N3, a strain developed at GSK for growth in engrafted mice. […] Blood samples were collected on Days 3, 4, 5, 6, and 7 (n = 3 per time point) for parasitemia measurement by flow cytometry. Similarly, blood samples were collected at 0.5, 1, 2, 4, 6, 8, 12, 24, and 48 h after a single administration of 4.7 mg/kg of ACT-451840 to a parallel group of three P. falciparum-infected mice for PK parameters determination. Results are expressed exclusively as antimalarial activity in the P. falciparum murine model.

[15] = P. vivax clinical isolates, n = 34 (open symbols)
[16] = P. falciparum clinical isolates, n = 27 (closed symbols)
[17] = D6, read-out: 50% inhibitory concentration (IC50)
[18] = 7G8, read-out: 50% inhibitory concentration (IC50)
[19] = K1, read-out: 50% inhibitory concentration (IC50)
[20] = read-out: 50% inhibitory concentration (IC50)

SMILES: OC(c1cc(C(F)(F)F)nc2c(C(F)(F)F)cccc12)C1CCCCN1 (stereo not shown) [Mefloquine, mefloquine]
IC50 [1, 15]: 15.2 nM
IC50 (V1/S^C580Y parasites; Plasmodium falciparum, 72 h): 0.8 ± 0.3 nM
IC50 fold change (V1/S^C580Y parasites; V1/S^C580Y versus V1/S): 0.6
IC50 ([2]; Plasmodium falciparum, 72 h): 1.3 ± 0.4 nM
IC50 fold change ([2]; V1/S (parental reference line)): 1.0
IC50 fold change (Cam3.II^C580Y parasites; Cam3.II^C580Y versus Cam3.II^rev): 1.2
IC50 (Cam3.II^C580Y parasites): 14 ± 0.9 nM
IC50 fold change ([3]; Cam3.II^rev (parental reference line)): 1.0
IC50 [3]: 12 ± 1.5 nM
IC50 [4, 16]: 13.4 nM

IC50 [1, 15]: 12.3 nM
IC50 [4, 16]: 16.8 nM
SMILES: CCN(CC)Cc1cc(Nc2ccnc3cc(Cl)ccc23)ccc1O [Amodiaquine]

IC50 ([5]; read-out: 50% inhibitory concentration (IC50), D6, resistance MFQ, mean ± SD): 5.4 ± 1.3 nM
IC50 ([6]; read-out: 50% inhibitory concentration (IC50), 7G8, resistance CQ, PYR, CYC, mean ± SD): 10500 nM
IC50 ([7]; V1/S, resistance CQ, SUL, PYR, CYC, mean ± SD): 21900 nM
IC50 ([8]; read-out: 50% inhibitory concentration (IC50), W2, resistance CQ, SUL, PYR, CYC, mean ± SD): 13900 nM
IC50 ([9]; read-out: 50% inhibitory concentration (IC50), NF54, no resistance, mean ± SD, n = 3): 18 ± 0.8 nM
IC50 ([10]; read-out: 50% inhibitory concentration (IC50), K1, resistance CQ, SUL, PYR, CYC, mean ± SD): 10100 nM
IC50 ([11]; read-out: 50% inhibitory concentration (IC50), resistance CQ, PYR, MFQ, CYC, mean ± SD): 19200 nM
SMILES: CCc1nc(N)nc(N)c1-c1ccc(Cl)cc1 [Pyrimethamine, pyrimethamine]

SMILES: O=C1C(O)=C([C@H]2CC[C@H](c3ccc(Cl)cc3)CC2)C(=O)c2ccccc21 [atovaquone]
lag phase in the killing curve [12]: 48 h

SMILES: C[C@H]1[C@H](OC(=O)CCC(=O)O)O[C@@H]2O[C@@]3(C)CC[C@H]4[C@H](C)CC[C@@H]1[C@@]24OO3 [Artesunate, artesunate]
IC50 [1, 15]: 2.9 nM
IC50 [5, 17]: 7.1 ± 1.9 nM
IC50 [6, 18]: 1.8 ± 0.2 nM
IC50 [7]: 3.2 ± 0.5 nM
IC50 [10, 19]: 2.7 ± 0.4 nM
infected mice cured [13]: 50%
IC50 [11, 20]: 4.6 ± 1.7 nM
IC50 (Cam3.II^C580Y parasites): 6.6 ± 0.3 nM
IC50 [3]: 6.7 ± 0.7 nM
IC50 [4, 16]: 2.6 nM

IC50 [1, 15]: 14.8 nM
IC50 [4, 16]: 25 nM
SMILES: Clc1ccc2c(N3CCN(CCCN4CCN(c5ccnc6cc(Cl)ccc56)CC4)CC3)ccnc2c1 [Piperaquine]

SMILES: C[C@@H]1CC[C@H]2[C@@H](C)C(=O)O[C@@H]3O[C@@]4(C)CC[C@@H]1[C@]32OO4 [artemisinin]
parasite clearance time to kill 99.9% of the initial population [12]: less than 24 h

SMILES: CCN(CC)CCCC(C)Nc1ccnc2cc(Cl)ccc12 (stereo not shown) [Chloroquine, chloroquine]
effective dose resulting in 90% antimalarial activity (ED90) [14]: 4.9 mg/kg
IC50 [1]: 43.9 nM
IC50 [5, 17]: 16 ± 1.2 nM
IC50 [6, 18]: 137 ± 21 nM
IC50 [7]: 458 ± 66 nM
IC50 ([8]; W2, read-out: 50% inhibitory concentration (IC50)): 326 ± 38 nM
IC50 ([9]; NF54, read-out: 50% inhibitory concentration (IC50)): 11 ± 2.1 nM
IC50 [10, 19]: 303 ± 37 nM
IC50 [11, 20]: 174 ± 19 nM
IC50 [4]: 101 nM
